According to patent US12514858B2, “CD38 inhibitors” (Astellas Engineered Small Molecules US, Incorporated, priority 2020, dated 2026):

Target: Human CD38 (Homo sapiens (Human), UniProt P28907)
Test: Determination of IC50 against human CD38 (CD38 Inhibitor Screening Assay Kit, glycohydrolase activity, fluorescence)
Type: biochemical
Details: CD38 hydrolase enzyme, 30 min preincubation at room temperature, F-NAD substrate, excitation 300 nm, emission 410 nm; read-out: hCD38 IC50
Procedure: CD38 hydrolase buffer (4×) was thawed on ice and 1×CD38 hydrolase buffer was prepared by diluting 4×CD38 hydrolase buffer with water. CD38 hydrolase enzyme was diluted to […] with 1×CD38 hydrolase buffer (10 ng/well). Master mix was prepared by mixing equal volumes of water and CD38 hydrolase buffer (4×) and 10 μl of the mix was added to all the wells. Following master mix addition, 10 μl of the inhibitors and 20 μl of CD38 hydrolase enzyme were added to the wells. For wells designated blank, 10 μl and 20 μl of 1× CD38 hydrolase buffer was added respectively in place of […]. The plate was covered and incubated 30 min at room temperature with slow shaking at 400 rpm. After 30 min incubation, the plate was removed and 10 μl of diluted F-NAD substrate was added to all the wells. The plate is incubated for 10 min, spun at 1200 rpm for 30 secs to remove bubbles and read in Tecan Spark using a fluorometer setting of excitation 300 nm and emission 410 nm. The reading for the blank was subtracted from all the values. IC50 for the test compounds were determined by using Graphpad prism software v7.0.

Human CD38, sequence (P28907 whole entry): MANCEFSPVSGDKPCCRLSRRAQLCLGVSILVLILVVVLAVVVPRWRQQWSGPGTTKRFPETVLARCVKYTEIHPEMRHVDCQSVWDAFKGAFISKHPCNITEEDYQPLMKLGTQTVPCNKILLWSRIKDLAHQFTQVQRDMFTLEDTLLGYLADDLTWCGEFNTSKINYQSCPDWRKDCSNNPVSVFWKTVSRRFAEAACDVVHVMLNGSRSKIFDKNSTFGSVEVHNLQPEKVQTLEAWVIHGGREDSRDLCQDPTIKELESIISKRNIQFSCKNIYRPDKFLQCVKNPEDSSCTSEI

Row | IC50 [nM] | SMILES
1 | 34 | COCCO[C@H]1CC[C@H](NC(=O)c2cc(-c3cnn(C)c3)nc(-c3cncs3)c2)CC1 [Ex. 3, N-((1r,4r)-4-(2-methoxyethoxy)cyclohexyl)-2-(1-methyl-1H-pyrazol-4-yl)-6-(thiazol-5-yl)isonicotinamide]
2 | 3500 | COCCO[C@H]1CC[C@H](NC(=O)c2cc(-c3cncs3)nc(C(F)(F)F)c2)CC1 [Ex. 4, N-((1r,4r)-4-(2-methoxyethoxy)cyclohexyl)-2-(thiazol-5-yl)-6-(trifluoromethyl)isonicotinamide]
3 | 256 | COCCO[C@H]1CC[C@H](NC(=O)c2cc(-c3cncs3)nc(-c3cncs3)n2)CC1 [Ex. 5, N-((1r,4r)-4-(2-methoxyethoxy)cyclohexyl)-2,6-di(thiazol-5-yl)pyrimidine-4-carboxamide]
4 | 53 | COCCO[C@H]1CC[C@H](NC(=O)c2cc(-c3cnn(C)c3)nc(-c3cncs3)n2)CC1 [Ex. 6, N-((1r,4r)-4-(2-methoxyethoxy)cyclohexyl)-6-(1-methyl-1H-pyrazol-4-yl)-2-(thiazol-5-yl)pyrimidine-4-carboxamide]
5 | > 10000 | COCCO[C@H]1CC[C@H](NC(=O)c2cc(SC)nc(-c3cncs3)n2)CC1 [Ex. 7, N-((1r,4r)-4-(2-methoxyethoxy)cyclohexyl)-6-(methylthio)-2-(thiazol-5-yl)pyrimidine-4-carboxamide]
6 | 286 | COCCO[C@H]1CC[C@H](NC(=O)c2cc(-c3cnn(C)c3)cc(-c3cncs3)n2)CC1 [Ex. 8, N-((1r,4r)-4-(2-methoxyethoxy)cyclohexyl)-4-(1-methyl-1H-pyrazol-4-yl)-6-(thiazol-5-yl)picolinamide]
7 | 10000 | COCCO[C@H]1CC[C@H](NC(=O)c2cccc(-c3cncs3)n2)CC1 [Ex. 9, N-((1r,4r)-4-(2-methoxyethoxy)cyclohexyl)-6-(thiazol-5-yl)picolinamide]
8 | 24 | COCCO[C@H]1CC[C@H](NC(=O)c2cc(-c3c(C)nn(C)c3C)cc(-n3ccnc3)n2)CC1 [Ex. 14, 6-(1H-imidazol-1-yl)-N-((1r,4r)-4-(2-methoxyethoxy)cyclohexyl)-4-(1,3,5-trimethyl-1H-pyrazol-4-yl)picolinamide]
9 | 45.9 | COCCO[C@H]1CC[C@H](NC(=O)c2cc(C(F)(F)F)cc(-n3ccnc3)n2)CC1 [Ex. 19, 6-(1H-imidazol-1-yl)-N-((1r,4r)-4-(2-methoxyethoxy)cyclohexyl)-4-(trifluoromethyl)picolinamide]
10 | 12 | COCCO[C@H]1CC[C@H](NC(=O)c2cc(-c3cnn(C(C)C)c3)nc(-n3ccnc3)c2)CC1 [Ex. 25, 2-(1H-imidazol-1-yl)-6-(1-isopropyl-1H-pyrazol-4-yl)-N-((1r,4r)-4-(2-methoxyethoxy)cyclohexyl)isonicotinamide]
11 | 54 | O=C(N[C@H]1CC[C@H](O)CC1)c1cccc(-n2ccnc2)n1 [Ex. 31, N-((1r,4r)-4-hydroxycyclohexyl)-6-(1H-imidazol-1-yl)picolinamide]
12 | 310 | COCCO[C@H]1CC[C@H](NC(=O)c2cc(C(C)O)cc(-n3ccnc3)n2)CC1 (stereo partly shown) [Ex. 38, 4-(1-Hydroxyethyl)-6-(1H-imidazol-1-yl)-N-((1r,4r)-4-(2-methoxyethoxy)cyclohexyl)picolinamide]
13 | 137 | COCCO[C@H]1CC[C@H](NC(=O)c2cc(S(C)(=O)=O)cc(-n3ccnc3)n2)CC1 [Ex. 39, 6-(1H-imidazol-1-yl)-N-((1r,4r)-4-(2-methoxyethoxy)cyclohexyl)-4-(methylsulfonyl)picolinamide]
14 | 1900 | COCCO[C@H]1CC[C@H](NC(=O)c2cc(C(C)(C)O)cc(-n3ccnc3)n2)CC1 [Ex. 40, 4-(2-Hydroxypropan-2-yl)-6-(1H-imidazol-1-yl)-N-((1r,4r)-4-(2-methoxyethoxy)cyclohexyl)picolinamide]
15 | 16 | O=C(N[C@H]1CC[C@H](OC(F)F)CC1)c1ccnc(-n2ccnc2)n1 [Ex. 41, N-((1r,4r)-4-(difluoromethoxy)cyclohexyl)-2-(1H-imidazol-1-yl)pyrimidine-4-carboxamide]
16 | 4.8 | Cc1cc(C(=O)N[C@H]2CC[C@H](OC(F)F)CC2)nc(-n2ccnc2)n1 [Ex. 42, N-((1r,4r)-4-(difluoromethoxy)cyclohexyl)-2-(1H-imidazol-1-yl)-6-methylpyrimidine-4-carboxamide]
17 | 17 | COCCO[C@H]1CC[C@H](NC(=O)c2cc(C#N)cc(-n3ccnc3)n2)CC1 [Ex. 43, 4-Cyano-6-(1H-imidazol-1-yl)-N-((1r,4r)-4-(2-methoxyethoxy)cyclohexyl)picolinamide]
18 | 12 | Cc1cc(C(=O)N[C@H]2CC[C@H](OCCO)CC2)nc(-n2ccnc2)n1 [Ex. 44, N-((1r,4r)-4-(2-hydroxyethoxy)cyclohexyl)-2-(1H-imidazol-1-yl)-6-methylpyrimidine-4-carboxamide]
19 | 144 | COCCO[C@H]1CC[C@H](NC(=O)c2cc(C)nc(-n3ccnc3)c2)CC1 [Ex. 46, 2-(1H-imidazol-1-yl)-N-((1r,4r)-4-(2-methoxyethoxy)cyclohexyl)-6-methylisonicotinamide]
20 | 31 | COCCO[C@H]1CC[C@H](NC(=O)c2cc(C#N)nc(-n3ccnc3)n2)CC1 [Ex. 47, 6-cyano-2-(1H-imidazol-1-yl)-N-((1r,4r)-4-(2-methoxyethoxy)cyclohexyl)pyrimidine-4-carboxamide]

Second part, the molecule before the results:

Row | SMILES | IC50 [nM]
21 | COCCO[C@H]1CC[C@H](NC(=O)c2cccc(-n3ccnc3)n2)CC1 [Ex 11, 6-(1H-imidazol-1-yl)-N-((1r,4r)-4-(2-methoxyethoxy)cyclohexyl)picolinamide] | 49
22 | COCCO[C@H]1CC[C@H](NC(=O)c2cc(-c3cncs3)nc(-n3ccnc3)c2)CC1 [Ex. 1, N-((1r,4r)-4-(2-methoxyethoxy)cyclohexyl)-2-(thiazol-5-yl)-6-(1H-imidazol-1-yl)isonicotinamide] | 60
23 | COCCO[C@H]1CC[C@H](NC(=O)c2cc(-c3cncs3)nc(-c3cncs3)c2)CC1 [Ex. 2, N-((1r,4r)-4-(2-methoxyethoxy)cyclohexyl)-2,6-di(thiazol-5-yl)isonicotinamide] | > 100
24 | COCCO[C@H]1CC[C@H](NC(=O)c2cc(Cl)cc(-n3ccnc3)n2)CC1 [Ex. 18, 4-chloro-6-(1H-imidazol-1-yl)-N-((1r,4r)-4-(2-methoxyethoxy)cyclohexyl)-picolinamide] | 16
25 | COCCO[C@H]1CC[C@H](NC(=O)c2cc(F)cc(-n3ccnc3)n2)CC1 [Ex. 20, 4-fluoro-6-(1H-imidazol-1-yl)-N-((1r,4r)-4-(2-methoxyethoxy)cyclohexyl)picolinamide] | 21.5
26 | COCCO[C@H]1CC[C@H](NC(=O)c2cc(-n3ccnc3)nc(-n3ccnc3)c2)CC1 [Ex. 22, 2,6-di(1H-imidazol-1-yl)-N-((1r,4r)-4-(2-methoxyethoxy)cyclohexyl)isonicotinamide] | 17.9
27 | COCCO[C@H]1CC[C@H](NC(=O)c2cc(-c3cnn(C)c3)nc(-n3ccnc3)c2)CC1 [Ex. 23, 2-(1H-imidazol-1-yl)-N-((1r,4r)-4-(2-methoxyethoxy)cyclohexyl)-6-(1-methyl-1H-pyrazol-4-yl)isonicotinamide] | 21
28 | CCn1cc(-c2cc(C(=O)N[C@H]3CC[C@H](OCCOC)CC3)cc(-n3ccnc3)n2)cn1 [Ex. 24, 2-(1-ethyl-1H-pyrazol-4-yl)-6-(1H-imidazol-1-yl)-N-((1r,4r)-4-(2-methoxyethoxy)cyclohexyl)isonicotinamide] | 153
29 | COCCO[C@H]1CC[C@H](NC(=O)c2cc(-c3ccn(C)n3)nc(-n3ccnc3)c2)CC1 [Ex. 26, 2-(1H-imidazol-1-yl)-N-((1r,4r)-4-(2-methoxyethoxy)cyclohexyl)-6-(1-methyl-1H-pyrazol-3-yl)isonicotinamide] | 150
30 | COCCO[C@H]1CC[C@H](NC(=O)c2cc(C)cc(-n3ccnc3)n2)CC1 [Ex. 29, 6-(1H-imidazol-1-yl)-N-((1r,4r)-4-(2-methoxyethoxy)cyclohexyl)-4-methylpicolinamide] | 31
31 | COCCO[C@H]1CC[C@H](NC(=O)c2cc(-n3ccnc3)cc(-c3cnn(C)c3)n2)CC1 [Ex. 30, 4-(1H-imidazol-1-yl)-N-((1r,4r)-4-(2-methoxyethoxy)cyclohexyl)-6-(1-methyl-1H-pyrazol-4-yl)picolinamide] | 429
32 | O=C(NC1CCCCC1)c1cccc(-n2ccnc2)n1 [Ex. 32, N-cyclohexyl-6-(1H-imidazol-1-yl)picolinamide] | 53
33 | O=C(N[C@H]1CC[C@H](O)CC1)c1ccnc(-n2ccnc2)n1 [Ex. 34, N-((1r,4r)-4-hydroxycyclohexyl)-2-(1H-imidazol-1-yl)pyrimidine-4-carboxamide] | 25.7
34 | COCCO[C@H]1CC[C@H](NC(=O)c2cc(C)nc(-n3ccnc3)n2)CC1 [Ex. 35, 2-(1H-imidazol-1-yl)-N-((1r,4r)-4-(2-methoxyethoxy)cyclohexyl)-6-methylpyrimidine-4-carboxamide] | 7.4
35 | COCCO[C@H]1CC[C@H](NC(=O)c2cc(C(F)(F)F)nc(-n3ccnc3)n2)CC1 [Ex. 36, 2-(1H-imidazol-1-yl)-N-((1r,4r)-4-(2-methoxyethoxy)cyclohexyl)-6-(trifluoromethyl)pyrimidine-4-carboxamide] | 39
36 | COCCO[C@H]1CC[C@H](NC(=O)c2cc(SC)cc(-n3ccnc3)n2)CC1 [Ex. 37, 6-(1H-imidazol-1-yl)-N-((1r,4r)-4-(2-methoxyethoxy)cyclohexyl)-4-(methylthio)picolinamide] | 42
37 | COCCO[C@H]1CC[C@H](NC(=O)c2cc(C(=O)O)nc(-n3ccnc3)n2)CC1 [Ex. 45] | 28
